The text below walks through data of patent publication US20150329896A1, “N-END RULE PROTEASE ACTIVITY […] AND USES THEREOF” (priority 2010, published 2015).

Peptide text beside a SMILES is read from it. * marks the point of attachment. Cbz = O=C(OCc1ccccc1)*

The subject of this assay is proteasome. In kind it is cell-based.

Turning to `CC(C)C[C@@H](C=O)NC(=O)[C@H](CC(C)C)NC(=O)[C@H](CC(C)C)NC(=O)OCc1ccccc1` [MG132] (Cbz-Leu-Leu-Leu-aldehyde), the “level of C-terminal (P9-luciferase) fragment produced by BoNT/A proteolysis” value is recorded as “accumulated”.
